Laboratory results taken from patent US10254278B2, “Method and system for detection of natural high intensity sweeteners that contain hydroxyl groups” (PureCircle Sdn Bhd, priority 2011, dated 2019).
Converted amounts (≈) assume the structure as drawn. Each block holds one molecule with its values, some of them ahead of it.

Tested on: antiserum KLH-R3 (I) (polyclonal anti-Rebaudioside D antibody)
Test: Competitive indirect ELISA for Rebaudioside D (conjugate-coated format, antiserum KLH-R3 (I) / BSA-R3 coating conjugate)
Type: binding, rabbit
Settings: for cross-reactivity CR = (IC50 Rebaudioside D/IC50 compound)×100: developed immunoassay for Reb D
Method: The hapten R1 (rebaudioside D) (5 mg suspended in 0.5 mL of 10 mM PBS) and KLH-conjugates or BSA-R (n=2-5), (0.5 mL of conjugate at a concentration of […], 10 mM PBS) were injected intramuscularly into two New Zealand California white rabbits, with 0.5 mL of complete Freund's adjuvant in the first immunization, and 0.5 mL of incomplete Freund's adjuvant in the following. Immunizations were performed every 21 days, and 10 days after each immunization bleedings were carried out to know the title and properties of serum from each animal. After five cycles of immunization, blood was obtained by bleeding, leaving it to coagulate overnight at 4° C. Subsequently, after adding sodium azide (0.02%) serum was separated by centrifugation and stored at −80° C.
First, the avidity of the sera obtained against different coating conjugates was determined by non-competitive indirect ELISA using different antisera (serial dilutions from 1/1000 to 1/64000) and concentrations of the coating conjugates (0.001 to 1.0 mg/L). Similarly, the avidity to the enzyme-tracer was determined by a direct non-competitive ELISA using several dilutions of the tracer (serial dilutions from 0.001 to 1.0 mg/L) and serum (from 1/500 to 1/512000).
The titres obtained from conjugate-coated format indirect format (ELISA plates coated with protein-hapten) were higher than those obtained for direct format (ELISA plates coated with serum), choosing as optimal concentrations of coating conjugates and dilution of serum, those that produced absorbance values around 0.8-1.2 units in absence of analyte (Rebaudioside D), to carry out competitive tests.
Flat-bottomed polystyrene ELISA plates were coated overnight at 4° C. with 100 μL/well of the appropriate coating conjugate solution in CB. The following day, plates were washed six times with 15 mmol/L PBS-T pH 8.5, and then 50 μL of the serum dilution and 50 μL of Reb D in PBS-T were added and incubated at room temperature during 1 h. After washing, an incubation step (1 h) with 100 μL/well GAR-HRP (diluted 1/2000 in PBS-T) was accomplished, and plates washed again. Finally, 100 μL/well of substrate solution (2 mg/mL OPD and 0.012% H2O2 in 25 mmol/L sodium citrate and 62 mmol/L sodium phosphate, pH 5.5) was added. The enzymatic reaction was stopped after 10 min by addition of 2.5 mol/L H2SO4 (50 μL/well), and the absorbance was read in a dual-wavelength mode (490, 650 nm).
The optimization was performed for the most sensitive assay (antiserum KLH-R3/BSA-R3 coating conjugate) using Reb D as competitor analyte.
The influence of several experimental parameters such as ionic strength, pH, surfactant concentration and time of competition on assay characteristics was examined in order to improve the immunoassay performance (sensitivity, maximum absorbance, working or dynamic range and detection limit). Criteria used to evaluate the assay performances were sensitivity (IC50), maximum absorbance (A0), dynamic range (DR, established between the Reb D concentrations producing 20% and 80% colour inhibition) and limit of detection (LD, estimated at 10% inhibitory concentration).
Assay selectivity was evaluated by determining the cross-reactivity with two sugars derived from Stevia rebaudiana, such as rebaudioside A and stevioside. The cross reactivity values were calculated according to the following equation: CR=(IC50 [mg/L] Rebaudioside D/IC50 [mg/L] compound)×100.

[1] = cross-reactivity study, related compound as competitor

IC50 [1]: 225 µg/L (≈ 233 nM)
cross-reactivity CR = (IC50 Rebaudioside D/IC50 compound)×100: 0.16%
SMILES: C=C1C[C@@]23CC[C@H]4[C@@](C)(CCC[C@@]4(C)C(=O)O[C@@H]4O[C@H](CO)[C@@H](O)[C@H](O)[C@H]4O)[C@@H]2CC[C@]1(O[C@@H]1O[C@H](CO)[C@@H](O)[C@H](O[C@@H]2O[C@H](CO)[C@@H](O)[C@H](O)[C@H]2O)[C@H]1O[C@@H]1O[C@H](CO)[C@@H](O)[C@H](O)[C@H]1O)C3 [Rebaudioside A]

IC50 [1]: 418,605 μg/L
cross-reactivity CR = (IC50 Rebaudioside D/IC50 compound)×100: 8.6×10^−5%
SMILES: C=C1C[C@@]23CC[C@H]4[C@@](C)(CCC[C@@]4(C)C(=O)O[C@@H]4O[C@H](CO)[C@@H](O)[C@H](O)[C@H]4O)[C@@H]2CC[C@]1(O[C@@H]1O[C@H](CO)[C@@H](O)[C@H](O)[C@H]1O[C@@H]1O[C@H](CO)[C@@H](O)[C@H](O)[C@H]1O)C3 [Stevioside]

IC50 (PBS 5 mmol/L, 0.05% Tween 20, pH 7.5): 1.53 ± 0.41 µg/L (≈ 1.35 nM)
IC50 (PBS 10 mmol/L, 0.05% Tween 20, pH 7.5): 1.30 ± 0.35 µg/L (≈ 1.15 nM)
IC50 (PBS 15 mmol/L, 0.05% Tween 20, pH 7.5): 0.77 ± 0.24 µg/L (≈ 0.682 nM)
IC50 (PBS 20 mmol/L, 0.05% Tween 20, pH 7.5): 1.02 ± 0.28 µg/L (≈ 0.903 nM)
IC50 (PBS 30 mmol/L, 0.05% Tween 20, pH 7.5): 1.70 ± 0.45 µg/L (≈ 1.51 nM)
IC50 (Tween 20 0.000%, 15 mM PBS, pH 8.5): 0.68 ± 0.26 µg/L (≈ 0.602 nM)
IC50 (Tween 20 0.010%, 15 mM PBS, pH 8.5): 0.56 ± 0.23 µg/L (≈ 0.496 nM)
IC50 (Tween 20 0.025%, 15 mM PBS, pH 8.5): 0.58 ± 0.19 µg/L (≈ 0.514 nM)
IC50 (Tween 20 0.050%, 15 mM PBS, pH 8.5): 0.49 ± 0.15 µg/L (≈ 0.434 nM)
IC50 (Tween 20 0.100%, 15 mM PBS, pH 8.5): 0.39 ± 0.08 µg/L (≈ 0.345 nM)
IC50 (optimal conditions (15 mM PBS, pH 8.5, 0.25% Tween 20), set of 20 calibration curves): 0.36 ± 0.05 µg/L (≈ 0.319 nM)
IC50 (pH 4.5, 15 mM PBS, 0.05% Tween 20): 0.63 ± 0.21 µg/L (≈ 0.558 nM)
IC50 (pH 5.5, 15 mM PBS, 0.05% Tween 20): 0.86 ± 0.23 µg/L (≈ 0.762 nM)
IC50 (pH 6.5, 15 mM PBS, 0.05% Tween 20): 0.91 ± 0.27 µg/L (≈ 0.806 nM)
IC50 (pH 7.5, 15 mM PBS, 0.05% Tween 20): 0.77 ± 0.24 µg/L (≈ 0.682 nM)
IC50 (pH 8.5, 15 mM PBS, 0.05% Tween 20): 0.49 ± 0.15 µg/L (≈ 0.434 nM)
IC50 (pH 9.5, 15 mM PBS, 0.05% Tween 20): 0.50 ± 0.19 µg/L (≈ 0.443 nM)
IC50 (serum screening, before optimization, pair KLH-R3 (I)/BSA-R3 (1:2000/0.03 mg/L)): 1.30 µg/L (≈ 1.15 nM)
SMILES: C=C1C[C@@]23CC[C@H]4[C@@](C)(CCC[C@@]4(C)C(=O)O[C@@H]4O[C@H](CO)[C@@H](O)[C@H](O)[C@H]4O[C@@H]4O[C@H](CO)[C@@H](O)[C@H](O)[C@H]4O)[C@@H]2CC[C@]1(O[C@@H]1O[C@H](CO)[C@@H](O)[C@H](O[C@@H]2O[C@H](CO)[C@@H](O)[C@H](O)[C@H]2O)[C@H]1O[C@@H]1O[C@H](CO)[C@@H](O)[C@H](O)[C@H]1O)C3 [Rebaudioside D]
detection limit (LD, estimated at 10% inhibitory concentration) (optimal conditions, 20 calibration curves): 0.01 µg/L
